From US10730886B2, “Compound having effect of inhibiting platelet aggregation and salt thereof, and composition for preventing or treating thrombotic diseases, containing same” (SHIN POONG PHARMACEUTICAL CO., LTD., priority 2015, dated 2020)
Where two headings read alike, the source gives them in different places.

Columns and labels:
[1] = test system: Human Platelet Rich Plasma (PRP); experiment: Shear stress-induced platelet aggregation inhibition in human platelet rich plasma (PRP), cone-plate viscometer; assay type: cell-based; conditions: for inhibition at 25 µM: Homo sapiens, Platelet
Protocol: 1-1. Measurement of Platelet Aggregation Inhibitory Effect Using Human Platelet Rich Plasma (PRP)
Blood was collected from the veins of healthy male volunteers who had not taken any medication for more than 2 weeks. All related studies were conducted under the approval of the Seoul National University Institutional Review Board (IRB No. 1305/001-016). During the whole process of study the use of glass containers or glass pipettes was avoided, and the experiments were performed at room temperature. To separate platelet rich plasma (PRP), the blood was collected with 3.2% sodium citrate as an anticoagulant. The whole blood was centrifuged at 150 g for 15 minutes to obtain the supernatant (PRP), and the residue was centrifuged at 2,000 g for 20 minutes to obtain platelet poor plasma (PPP). The number of platelets of the PRP thus obtained was counted with an optical microscope using a hemacytometer. PRP was diluted with PPP so as to include 3×10^8 platelets per 1 ml, and then used in the experiments. PRP was put on a cone-plate viscometer (RotoVisco 1, Thermo Fischer Scientific, USA), and shear stress was applied to the PRP at 37° C. for 3 minutes at a shear rate of 10,800 s^−1. In order to evaluate candidate substances, prior to the induction of platelet aggregation, 598.8 μl of PRP was treated with 1.2 μl of 25 μM candidate substance and incubated at 37° C. for 3 minutes using a thermomixer. After applying the shear stress, 20 μl of PRP was fixed in 280 μl of a suspension buffer containing 0.5% glutaraldehyde (134 mM NaCl, 2.9 mM KCl, 1.0 mM MgCl2.6H2O, 10.0 mM HEPES, 5.0 mM dextrose, 12.0 mM NaHCO3, 0.34 mM Na2HPO4, 0.3% BSA, pH 7.4). Then, the number of single platelets in the suspension was counted using a hemacytometer. The degree of inhibition by the candidate substance was calculated according to the following formula (1). The degree of inhibition was determined by the method described below. No shear stress-applied group served as a control, and only shear stress-applied group served as positive control. Degree of inhibition (%)=[(1−A/B)×100]/[(1−A/C)×100] Formula 1
A: Number of single platelets in the shear stress-applied sample after treatment with candidate substance
B: Number of single platelets in the control group with no shear stress applied
C: Number of single platelets in the positive control group with only shear stress applied

[2] = test system: ADP-induced platelet aggregation, Human PRP; experiment: ADP-induced platelet aggregation in human PRP (lumi-aggregometer); assay type: cell-based; conditions: ADP 15-20 μM
Protocol: To investigate whether the candidate substance has inhibition selectivity for shear-stress-induced platelet aggregation, which is by a physical stimulus, […] experiment was conducted by activating platelets with physiological agonists—i.e., thrombin, collagen and ADP—to study the inhibitory effect of the candidate substance.
Human PRP (598.8 μl) was treated with 1.2 μl of the candidate substance per concentration (25, 100, 250 μM) and reacted at 37° C. for 3 minutes using a thermomixer. Then, PRP (495 μl) was put in the aggregometer cuvette and preincubated for 1 minute, followed by treatment with platelet aggregation-inducing reagent, thrombin (0.6-0.8 U/ml), collagen (2-5 μg/ml), or ADP (adenosine diphosphate, 15-20 μM) at the minimum concentration causing maximum aggregation. The degree of aggregation of the platelets was measured by a turbidity change using a lumi-aggregometer (Chrono-Log Co., USA). The turbidity of the PRP was considered as 0%, and the turbidity of the PPP was considered as 100%. During the measurement, the reaction mixture was continuously stirred at 1,000 rpm with a silicone-coated magnetic stir bar.

[3] = test system: human liver cells (HepG2); experiment: Cytotoxicity in human liver cells HepG2 (WST-1); assay type: cell-based; conditions: HepG2, 250 μM, 18 hours
Protocol: 5-3. Evaluation of Cytotoxicity of Candidate Substances Using Human Liver Cells
Experiments were conducted to evaluate cytotoxicity in human liver cells (HepG2). HepG2 cells, which are human liver carcinoma cell lines, were cultured in DMEM (Dulbecco's minimum essential medium) supplemented with 10% FBS (fetal bovine serum) and 1% Penicillin/Streptomycin at 37° C. and 5% CO2. The cells were cultured in a 48 well plate at 4×10^4 cells/well for 24 hours and then used in the experiments. The HepG2 cells were treated with the candidate substances (250 μM) for 18 hours, and then the medium was removed and WST-1 was added, followed by shading for 3 hours for reaction. After 3 hours, the supernatant was taken and absorbance was measured at 450 nm. Cell viability was calculated by comparing the absorbance measured after adding WST-1 to HepG2 cells not treated with the candidate substances. Acetaminophen (40 mM) was used as a control.

[4] = 2-week repeat-dose toxicity study; assay type: in vivo; conditions: both sexes, mouse, in vivo; ICR mice, oral 100, 300, 1000 mg/kg once a day for 2 weeks; read-out: NOAEL (No observed adverse effect level)
Protocol: (§1) After oral administration of vehicle (0.5% methylcellulose) or the candidate substances at low dose, medium dose, and high dose (100, 300, 1000 mg/kg) to ICR mice (female, male, 18 to 26 g) once a day for 2 weeks, the NOAEL values of the candidate substances were calculated by observing and recording mortality, body weight change, clinical observations, food and drinking water consumption, gross necropsy findings, histopathological evaluation of abnormal organ, and organ weights.

[5] = test system: ICR mice; experiment: 2-week repeat-dose toxicity study; assay type: in vivo; conditions: oral 100, 300 and 1000 mg/kg once a day for 2 weeks
Protocol: as §1

[6] = test system: ICR mouse; experiment: Bleeding side effect by repeated administration (tail bleeding time); conditions: 50 mg/kg oral once daily for 7 days
Protocol: One hour after the last administration, the mice were anesthetized by breathing, and the 4 mm portion from the tail tip of the mice was cut. Then, the tail tip of the mice was immersed in a transparent 15-ml tube containing the pre-prepared 37° C. saline. The time when blood was not spread any more and the bleeding stopped was measured.

[7] = 0.05 h, human PRP, 25 μM, shear rate 10,800 s^-1, 3 min, read-out: Degree of inhibition (%, Mean ± SEM)
[8] = Table 1 summary bins, concentration and matrix not given, read-out: Inhibitory effect of shear stress-induced platelet aggregation
[9] = human PRP, 25 μM, shear rate 10,800 s^-1, 3 min

## COc1cc(C(=O)N2CCc3sccc3C2)ccc1O [Example 12, (6,7-Dihydrothieno[3,2-c]pyridin-5(4H)-yl)(4-hydroxy-3-methoxyphenyl)methanone]
[1]; [7]
  inhibition at 25 µM: 20 to 30%
[1]; [8]
  inhibition at 25 µM: 20 to 30%
[1]; [9]
  Degree of inhibition (%, Mean ± SEM): 25 ± 6%
[2]; compound 25 μM
  Degree of platelet aggregation (%, Mean ± SEM): 76.0 ± 3.0%
[2]; compound 100 μM
  Degree of platelet aggregation (%, Mean ± SEM): 67.5 ± 2.5%
[2]; compound 250 μM
  Degree of platelet aggregation (%, Mean ± SEM): 77.0 ± 12.0%
[3]
  Cell vaibility (%): 89.0 ± 2.3%

## COc1cc(C(=O)Oc2c(C)occc2=O)ccc1O [Example 14, 2-Methyl-4-oxo-4H-pyran-3-yl 4-hydroxy-3-methoxybenzoate]
[1]; [7]
  inhibition at 25 µM: ≥ 30%
[1]; [8]
  inhibition at 25 µM: ≥ 30%
[2]; compound 25 μM
  Degree of platelet aggregation (%, Mean ± SEM): 74.5 ± 2.5%
[2]; compound 100 μM
  Degree of platelet aggregation (%, Mean ± SEM): 75.0 ± 3.0%
[2]; compound 250 μM
  Degree of platelet aggregation (%, Mean ± SEM): 63.5 ± 5.5%
[3]
  Cell vaibility (%): 87.3 ± 2.7%
[4]
  NOAEL at 2 weeks: > 1000 mg/kg
[5]
  findings in body weight change, clinical observations, food and drinking water consumption, gross necropsy findings, and organ weights: no abnormal findings were observed
  mortality: no dead animals were observed
[6]
  Bleeding time: 1.6 ± 0.3 min

## O=C(c1cc(O)ccc1O)N1CCc2sccc2C1 [Example 20, (6,7-Dihydrothieno[3,2-c]pyridin-5(4H)-yl)(2,5-dihydroxyphenyl)methanone]
[1]; [7]
  inhibition at 25 µM: ≥ 30%
[1]; [8]
  inhibition at 25 µM: ≥ 30%
[2]; compound 25 μM
  Degree of platelet aggregation (%, Mean ± SEM): 73.0 ± 2.0%
[2]; compound 100 μM
  Degree of platelet aggregation (%, Mean ± SEM): 69.0 ± 1.0%
[2]; compound 250 μM
  Degree of platelet aggregation (%, Mean ± SEM): 66.5 ± 2.5%
[3]
  Cell vaibility (%): 87.7 ± 2.6%

## COc1ccc(NC(=O)c2ccc(O)c(OC)c2)c([N+](=O)[O-])c1 [Example 15, 4-Hydroxy-3-methoxy-N-(4-methoxy-2-nitrophenyl)benzamide]
[1]; [7]
  inhibition at 25 µM: 20 to 30%
[1]; [8]
  inhibition at 25 µM: 20 to 30%
[1]; [9]
  Degree of inhibition (%, Mean ± SEM): 24 ± 8%
[2]; compound 25 μM
  Degree of platelet aggregation (%, Mean ± SEM): 70.5 ± 2.5%
[2]; compound 100 μM
  Degree of platelet aggregation (%, Mean ± SEM): 68.5 ± 3.5%
[2]; compound 250 μM
  Degree of platelet aggregation (%, Mean ± SEM): 67.0 ± 4.0%
[3]
  Cell vaibility (%): 89.7 ± 2.3%

## O=C(c1ccc(O)c(O)c1)N1CCc2sccc2C1 [Example 1, (6,7-Dihydrothieno[3,2-c]pyridin-5(4H)-yl)(3,4-dihydroxyphenyl)methanone]
[1]; [7]
  inhibition at 25 µM: 20 to 30%
[1]; [8]
  inhibition at 25 µM: 20 to 30%
[1]; [9]
  Degree of inhibition (%, Mean ± SEM): 23 ± 2%
[2]; compound 25 μM
  Degree of platelet aggregation (%, Mean ± SEM): 77.5 ± 3.5%
[2]; compound 100 μM
  Degree of platelet aggregation (%, Mean ± SEM): 69.0 ± 6.0%
[2]; compound 250 μM
  Degree of platelet aggregation (%, Mean ± SEM): 78.0 ± 7.0%
[3]
  Cell vaibility (%): 91.7 ± 2.0%

## CCc1occc(=O)c1OC(=O)c1ccc(O)c(OC)c1 [Example 13, 2-Ethyl-4-oxo-4H-pyran-3-yl 4-hydroxy-3-methoxybenzoate]
[1]; [7]
  inhibition at 25 µM: 20 to 30%
[1]; [8]
  inhibition at 25 µM: 20 to 30%
[1]; [9]
  Degree of inhibition (%, Mean ± SEM): 26 ± 6%
[2]; compound 25 μM
  Degree of platelet aggregation (%, Mean ± SEM): 75.5 ± 1.5%
[2]; compound 100 μM
  Degree of platelet aggregation (%, Mean ± SEM): 75.0 ± 1.0%
[2]; compound 250 μM
  Degree of platelet aggregation (%, Mean ± SEM): 71.5 ± 6.5%
[3]
  Cell vaibility (%): 98.3 ± 5.5%
[4]
  NOAEL at 2 weeks: > 1000 mg/kg
[5]
  findings in body weight change, clinical observations, food and drinking water consumption, gross necropsy findings, and organ weights: no abnormal findings were observed
  mortality: no dead animals were observed
[6]
  Bleeding time: 1.6 ± 0.4 min

## O=C(c1cc(O)ccc1O)N1CCC(c2noc3ccc(F)cc23)CC1 [Example 23, (2,5-Dihydroxyphenyl)(4-(5-fluorobenzo[d]isoxazol-3-yl)piperidin-1-yl)methanone]
[1]; [7]
  inhibition at 25 µM: 20 to 30%
[1]; [8]
  inhibition at 25 µM: 20 to 30%
[1]; [9]
  Degree of inhibition (%, Mean ± SEM): 28 ± 3%
[2]; compound 25 μM
  Degree of platelet aggregation (%, Mean ± SEM): 73.5 ± 1.5%
[2]; compound 100 μM
  Degree of platelet aggregation (%, Mean ± SEM): 66.0 ± 1.0%
[2]; compound 250 μM
  Degree of platelet aggregation (%, Mean ± SEM): 65.0 ± 0.0%
[3]
  Cell vaibility (%): 82.7 ± 5.5%
